Experimental findings from ChEMBL document CHEMBL1667781, “Biological evaluation of KRIBB3 analogs as a microtubule polymerization inhibitor” (Bioorg Med Chem Lett, 2011) are described below.

The nature of the assay: Inhibition of tubulin polymerization for 70 mins by microtubule polymerization assay. Details: concentration or dose not given beside the values.
The inhibition is the drop in the measured response relative to a control, in per cent. Turning to `COc1ccc(-c2cnoc2-c2ccc(O)cc2)cc1`, the inhibition worked out at 80%.
In the case of `CCc1cc(-c2oncc2-c2ccc(O)cc2)c(O)cc1OC`, the inhibition worked out at 115%.
Take `COc1ccc(-c2cnoc2-c2ccc(OC)c(OCc3ccccc3)c2)cc1`: the inhibition worked out at 128%.
As to `COc1ccc(-c2cnoc2-c2cc(C)c(OCc3ccccc3)c(C)c2)cc1`, the inhibition was 126%.
As to `CCc1cc(-c2oncc2-c2ccc(O)cc2)c(O)cc1O`, the inhibition amounted to 134%.
For `COc1ccc(-c2cnoc2-c2cc(C)c(O)c(C)c2)cc1`, the inhibition was 76%.
Turning to `CCc1cc(-c2oncc2-c2ccc(OC)cc2)c(OCc2ccccc2)cc1OC`, the inhibition was determined as 79%.
With `COc1ccc(-c2cnoc2-c2ccc(OC)c(O)c2)cc1`, the inhibition stood at 50%.
As for `COc1ccc(-c2cnoc2-c2ccc(O)c(O)c2)cc1`, the inhibition turned out to be 65%.
In the case of `COc1ccc(-c2cnoc2-c2ccc(OCc3ccccc3)c(OCc3ccccc3)c2)cc1`, the inhibition was 80%.
The value for `CCc1cc(-c2oncc2-c2ccc(OC)cc2)c(O)cc1OC` was 52%.
